“Also recorded” adds a separate entry of the source.
Legend:
PchA [1] = molecular target: T1, PchA (Pseudomonas aeruginosa, UniProt Q51508); conditions: cited from earlier work
T1 sequence (Q51508 1-476): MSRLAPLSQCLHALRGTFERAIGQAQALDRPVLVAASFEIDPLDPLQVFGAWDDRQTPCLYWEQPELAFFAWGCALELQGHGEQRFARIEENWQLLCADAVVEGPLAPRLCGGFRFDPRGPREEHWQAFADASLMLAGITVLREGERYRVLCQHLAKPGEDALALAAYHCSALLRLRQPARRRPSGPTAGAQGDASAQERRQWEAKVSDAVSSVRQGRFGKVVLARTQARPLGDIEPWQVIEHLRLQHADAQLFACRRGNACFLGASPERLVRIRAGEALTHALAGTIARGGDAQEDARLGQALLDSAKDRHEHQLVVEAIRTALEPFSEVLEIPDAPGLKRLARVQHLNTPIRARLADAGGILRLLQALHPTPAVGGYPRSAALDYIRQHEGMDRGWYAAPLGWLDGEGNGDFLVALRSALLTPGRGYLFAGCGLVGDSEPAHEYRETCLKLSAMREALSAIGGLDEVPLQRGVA

[2] = system: MST enzymes (PchA, EntC, Irp9); experiment: Ligand binding rates by stopped-flow intrinsic fluorescence; conditions: all three enzymes
PchB = molecular target: T2, PchB (Pseudomonas aeruginosa, UniProt Q51507); experiment: Steady-state PchB lyase activity; assay type: biochemical
T2 sequence (Q51507 1-101): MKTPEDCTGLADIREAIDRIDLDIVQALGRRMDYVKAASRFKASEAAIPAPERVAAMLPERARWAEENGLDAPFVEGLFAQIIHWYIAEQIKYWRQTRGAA

Irp9 = Irp9 (Yersinia enterocolitica, UniProt Q9X9I8); assay type: biochemical; conditions: saturating chorismate 20 μM; magnesium 0–20 mM
PchA [3] = molecular target: T1, PchA; assay type: biochemical
EntC = molecular target: T3, EntC (Escherichia coli, UniProt P0AEJ2); experiment: Steady-state chorismate isomerase activity, PchB-coupled salicylate fluorescence; assay type: biochemical
T3 sequence (P0AEJ2 1-391): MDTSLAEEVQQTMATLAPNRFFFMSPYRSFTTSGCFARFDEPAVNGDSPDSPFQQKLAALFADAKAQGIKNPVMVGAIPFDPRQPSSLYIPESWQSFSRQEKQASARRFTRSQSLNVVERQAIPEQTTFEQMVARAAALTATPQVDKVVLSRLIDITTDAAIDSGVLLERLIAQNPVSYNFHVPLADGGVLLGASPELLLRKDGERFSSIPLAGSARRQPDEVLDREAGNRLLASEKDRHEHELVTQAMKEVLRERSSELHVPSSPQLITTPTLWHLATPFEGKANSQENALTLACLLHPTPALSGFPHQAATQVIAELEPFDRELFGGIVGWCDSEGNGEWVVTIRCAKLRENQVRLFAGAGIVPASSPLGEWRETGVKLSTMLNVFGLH

PchA, EntC, and Irp9 = experiment: Dissociation constants by intrinsic fluorescence; assay type: binding; conditions: read-out: Kd of E·Mg complexes (range over all three enzymes)
Fur = conditions: read-out: Kd for Fe(II) binding; cited from earlier work

CN1[C@@H]([C@H]2CSC(c3ccccc3O)=N2)SC[C@H]1C(=O)O [pyochelin]
feedback inhibition of PchA (PchA [1]): no inhibition

[Cl-].[Cl-].[Mg+2] [magnesium, magnesium chloride]
observed rate constant of ligand binding (bound from ∼1.0 ms dead time) ([2]; binding complete within stopped-flow dead time, 25 °C): greater than 1600 s^–1
association rate constants (order of magnitude) ([2]; suggested from dead-time bound): ~10^8 M^–1 s^–1
binding of and inhibition by magnesium (PchB): does not bind and is not inhibited
magnesium inhibition in the steady state (shape of magnesium dependence) (Irp9): normal hyperbolic shape; also recorded: did not exhibit the same inhibition
magnesium concentration at which maximal velocity was observed (PchA [3]): approximately 0.5 mM
magnesium concentrations at which inhibition is noted (PchA [3]; steady state): over 0.5 mM
magnesium concentration at which maximal velocity was observed (EntC; saturating chorismate 200 μM, magnesium 0–20 mM): approximately 0.5 mM
magnesium concentrations at which inhibition is noted (EntC; steady state): over 0.5 mM
Kd (PchA, EntC, and Irp9): 130 to 190 µM

O=S(=O)([O-])[O-].O=S(=O)([O-])[O-].[Fe+2].[NH4+].[NH4+] [Fe(II), ferrous ammonium sulfate]
Kd (Fur): 1.2 µM
effect on PchA activity (PchA [1]; 100 μM): did not alter PchA activity

N[C@@H](CS)C(=O)O [cysteine]
feedback inhibition of PchA (PchA [1]): no inhibition
